Assay results reported in patent US11878975B2, “Substituted indole compounds useful as TLR inhibitors” (BRISTOL-MYERS SQUIBB COMPANY, priority 2017, dated 2024).

What was measured:
Type in all cases: cell-based
human TLR7 = target: T1, human TLR7 (Homo sapiens, UniProt Q9NYK1); test: TLR7 inhibition reporter assay (HEK-Blue cells, SEAP reporter, gardiquimod stimulation); conditions: HEK-Blue cells overexpressing human TLR7, SEAP reporter, gardiquimod 7.5 μM
T1 construct: host or cells: HEK-Blue cells
T1 sequence (Q9NYK1 27-1049): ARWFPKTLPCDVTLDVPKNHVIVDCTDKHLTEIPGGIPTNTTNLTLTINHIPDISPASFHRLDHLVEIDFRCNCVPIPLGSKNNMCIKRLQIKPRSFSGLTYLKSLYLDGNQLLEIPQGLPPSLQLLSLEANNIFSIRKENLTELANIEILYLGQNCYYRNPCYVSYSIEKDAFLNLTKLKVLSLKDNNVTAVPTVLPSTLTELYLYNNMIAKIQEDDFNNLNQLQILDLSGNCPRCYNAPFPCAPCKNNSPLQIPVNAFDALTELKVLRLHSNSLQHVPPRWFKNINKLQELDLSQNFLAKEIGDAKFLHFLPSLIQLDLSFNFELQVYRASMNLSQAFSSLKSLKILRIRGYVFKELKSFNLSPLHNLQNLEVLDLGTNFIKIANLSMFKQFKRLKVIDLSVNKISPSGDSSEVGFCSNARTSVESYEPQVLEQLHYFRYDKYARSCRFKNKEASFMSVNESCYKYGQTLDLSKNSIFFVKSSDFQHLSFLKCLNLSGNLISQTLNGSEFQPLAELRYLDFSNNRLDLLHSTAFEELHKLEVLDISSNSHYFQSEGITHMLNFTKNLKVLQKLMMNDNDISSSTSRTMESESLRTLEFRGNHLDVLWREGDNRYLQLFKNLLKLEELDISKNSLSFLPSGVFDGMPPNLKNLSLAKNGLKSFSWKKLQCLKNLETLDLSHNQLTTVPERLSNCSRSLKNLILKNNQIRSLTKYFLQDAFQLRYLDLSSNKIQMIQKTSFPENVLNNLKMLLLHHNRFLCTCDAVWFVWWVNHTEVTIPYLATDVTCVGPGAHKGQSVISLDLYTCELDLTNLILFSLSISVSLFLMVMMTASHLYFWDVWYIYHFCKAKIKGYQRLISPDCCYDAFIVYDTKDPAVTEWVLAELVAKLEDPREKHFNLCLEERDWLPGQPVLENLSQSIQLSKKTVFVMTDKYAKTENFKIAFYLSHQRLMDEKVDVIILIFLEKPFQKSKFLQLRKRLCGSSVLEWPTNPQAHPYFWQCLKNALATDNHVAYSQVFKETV
In short: (§1)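 SEAP readout after 22 h agonist exposure at 37 °C; final agonist levels were 7.5 μM gardiquimod (TLR7), 15.9 μM R848 (TLR8) and 5 nM ODN2006 (TLR9). Inhibitors, spanning 0.05 nM to 50 μM final, were applied 30 min beforehand.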

human TLR8 = target: T2, human TLR8 (Homo sapiens, UniProt Q9NR97); test: TLR8 inhibition reporter assay (HEK-Blue cells, SEAP reporter, R848 stimulation); conditions: HEK-Blue cells overexpressing human TLR8, SEAP reporter, R848 15.9 μM
T2 construct: host or cells: HEK-Blue cells
T2 sequence (Q9NR97 27-1041): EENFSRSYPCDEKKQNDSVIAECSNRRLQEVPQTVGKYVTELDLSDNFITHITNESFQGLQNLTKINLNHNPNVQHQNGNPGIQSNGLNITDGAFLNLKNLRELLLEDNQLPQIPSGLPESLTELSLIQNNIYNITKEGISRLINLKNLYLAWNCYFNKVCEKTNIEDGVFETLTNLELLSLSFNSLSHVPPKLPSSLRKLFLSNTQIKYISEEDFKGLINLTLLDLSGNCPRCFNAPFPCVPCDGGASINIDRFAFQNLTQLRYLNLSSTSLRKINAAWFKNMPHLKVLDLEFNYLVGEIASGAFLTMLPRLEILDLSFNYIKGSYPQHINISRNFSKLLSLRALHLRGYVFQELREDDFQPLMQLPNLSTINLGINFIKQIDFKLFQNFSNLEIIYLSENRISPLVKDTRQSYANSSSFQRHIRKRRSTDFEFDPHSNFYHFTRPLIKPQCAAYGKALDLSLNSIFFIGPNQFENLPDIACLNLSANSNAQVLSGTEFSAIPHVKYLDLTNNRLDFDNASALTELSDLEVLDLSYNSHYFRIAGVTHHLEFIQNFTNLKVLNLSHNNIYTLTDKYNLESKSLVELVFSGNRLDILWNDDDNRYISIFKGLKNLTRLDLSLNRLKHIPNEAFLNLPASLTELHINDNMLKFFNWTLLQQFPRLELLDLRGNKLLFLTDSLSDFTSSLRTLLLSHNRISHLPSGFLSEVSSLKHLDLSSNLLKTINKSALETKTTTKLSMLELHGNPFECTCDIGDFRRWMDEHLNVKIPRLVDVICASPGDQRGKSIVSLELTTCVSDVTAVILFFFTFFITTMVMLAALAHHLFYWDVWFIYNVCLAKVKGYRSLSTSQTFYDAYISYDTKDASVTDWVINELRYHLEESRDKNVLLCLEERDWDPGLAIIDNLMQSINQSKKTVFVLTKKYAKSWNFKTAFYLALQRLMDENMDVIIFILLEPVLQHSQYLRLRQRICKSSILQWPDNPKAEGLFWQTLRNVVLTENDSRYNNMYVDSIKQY
In short: as §1

human TLR9 = target: T3, human TLR9 (Homo sapiens, UniProt Q9NR96); test: TLR9 inhibition reporter assay (HEK-Blue cells, SEAP reporter, ODN2006 stimulation); conditions: HEK-Blue cells overexpressing human TLR9, SEAP reporter, ODN2006 5 nM
T3 construct: host or cells: HEK-Blue cells
T3 sequence (Q9NR96 26-1032): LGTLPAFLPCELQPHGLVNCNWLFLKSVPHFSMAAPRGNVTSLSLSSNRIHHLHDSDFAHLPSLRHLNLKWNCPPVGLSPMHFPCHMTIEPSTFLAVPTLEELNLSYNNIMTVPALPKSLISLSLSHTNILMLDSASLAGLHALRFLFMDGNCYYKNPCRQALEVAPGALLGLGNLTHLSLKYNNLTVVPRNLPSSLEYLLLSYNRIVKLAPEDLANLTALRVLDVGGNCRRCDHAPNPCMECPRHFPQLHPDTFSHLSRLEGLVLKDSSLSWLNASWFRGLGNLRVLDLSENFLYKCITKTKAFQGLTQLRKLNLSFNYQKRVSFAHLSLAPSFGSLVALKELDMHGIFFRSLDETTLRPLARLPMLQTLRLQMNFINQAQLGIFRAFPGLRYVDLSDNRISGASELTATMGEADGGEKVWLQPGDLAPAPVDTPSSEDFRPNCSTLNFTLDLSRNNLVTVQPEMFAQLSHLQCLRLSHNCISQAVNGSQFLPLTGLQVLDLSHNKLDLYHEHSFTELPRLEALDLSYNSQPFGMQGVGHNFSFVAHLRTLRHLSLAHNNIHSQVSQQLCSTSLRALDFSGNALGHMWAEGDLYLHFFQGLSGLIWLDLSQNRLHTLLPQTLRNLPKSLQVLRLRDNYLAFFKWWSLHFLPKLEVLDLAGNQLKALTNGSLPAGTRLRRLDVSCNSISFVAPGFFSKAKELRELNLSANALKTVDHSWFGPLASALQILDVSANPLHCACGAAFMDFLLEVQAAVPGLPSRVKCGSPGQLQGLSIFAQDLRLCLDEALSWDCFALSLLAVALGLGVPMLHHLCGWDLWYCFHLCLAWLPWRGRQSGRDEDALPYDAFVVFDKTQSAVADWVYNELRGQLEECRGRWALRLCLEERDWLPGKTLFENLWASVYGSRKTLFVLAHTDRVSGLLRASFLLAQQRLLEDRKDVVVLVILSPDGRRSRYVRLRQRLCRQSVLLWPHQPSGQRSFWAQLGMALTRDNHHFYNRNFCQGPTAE
In short: as §1

With `COc1cc(-c2[nH]c3ccc(C4CCC(NC(C)=O)CC4)cc3c2C(C)C)cn2ncnc12` (single isomer, unassigned) [Example 115, N-(4-(3-isopropyl-2-(8-methoxy-[1,2,4]triazolo[1,5-a]pyridin-6-yl)-1H-indol-5-yl)cyclohexyl)acetamide] the IC50 (human TLR7) was 1 nM, the IC50 (human TLR8) was 13 nM and the IC50 (human TLR9) was 16100 nM.

In the case of `Cc1c(-c2[nH]c3ccc(C4CN(CC(N)=O)CCO4)cc3c2C(C)C)cn2ncnc2c1C` (stereo not drawn) [Example 319], the IC50 (human TLR7) is reported as 14 nM, the IC50 (human TLR8) is reported as 24 nM and the IC50 (human TLR9) is reported as greater than 50000 nM.

In the case of `Cc1cc(-c2[nH]c3ccc(C4CNCCO4)cc3c2C(C)C)cn2ncnc12` (stereo not drawn) [Example 281, 2-(3-isopropyl-2-(8-methyl-[1,2,4]triazolo[1,5-a]pyridin-6-yl)-1H-indol-5-yl)morpholine], the IC50 (human TLR7) is reported as 0.38 nM, the IC50 (human TLR8) is reported as 1.1 nM and the IC50 (human TLR9) is reported as 4020 nM.

`Cc1cc(-c2[nH]c3ccc([C@H]4C[C@H]4C(=O)N4CC5CC4CN5)cc3c2C(C)C)ccn1` (stereo partly drawn) [Example 454] was tested, and the IC50 (human TLR7) was 96 nM, the IC50 (human TLR8) was 5.5 nM and the IC50 (human TLR9) was 363 nM.

`COc1cc(-c2[nH]c3ccc(C4CN(C(=O)CN5CCS(=O)(=O)CC5)CCO4)cc3c2C(C)C)cn2ncnc12` (stereo not drawn) [Example 360] was tested, and the IC50 (human TLR7) was 11 nM, the IC50 (human TLR8) was 68 nM and the IC50 (human TLR9) was greater than 50000 nM.

Work on `Cc1c(-c2[nH]c3ccc(CC4CN(C5CCOCC5)C4)cc3c2C(C)C)cn(C)c(=O)c1C` [Example 416] yielded an IC50 (human TLR7) of 115 nM, an IC50 (human TLR8) of 6.4 nM and an IC50 (human TLR9) of 4090 nM.

`Cc1c(-c2[nH]c3ccc(C4CCC(NC5CC5)CC4)cc3c2C(C)C)cn2ncnc2c1C` (stereo not drawn) [Example 14] showed an IC50 (human TLR7) of 5 nM, an IC50 (human TLR8) of 3.5 nM and an IC50 (human TLR9) of 4080 nM.

In the case of `Cc1cc(-c2[nH]c3ccc(C4CN(CC(=O)N(C)C)CCO4)cc3c2C(C)C)cn2ncnc12` (single isomer, unassigned) [Example 308], the IC50 (human TLR7) is reported as 8 nM, the IC50 (human TLR8) is reported as 18 nM and the IC50 (human TLR9) is reported as greater than 50000 nM.

In the case of `CC(C)c1c(-c2ccnc3[nH]ncc23)[nH]c2ccc(CC3CCNCC3)cc12` [Example 424], the IC50 (human TLR7) is reported as 24 nM, the IC50 (human TLR8) is reported as 2.9 nM and the IC50 (human TLR9) is reported as 2100 nM.

Compound `COc1cc(-c2[nH]c3ccc(C4CCC(N5CC(O)C5)CC4)cc3c2C(C)C)cn2ncnc12` (single isomer, unassigned) [Example 20] has an IC50 (human TLR7) of 0.3 nM, an IC50 (human TLR8) of 0.81 nM and an IC50 (human TLR9) of 346 nM.

`CNCC(=O)N1CCOC(c2ccc3[nH]c(-c4cn5ncnc5c(C)c4C)c(C(C)C)c3c2)C1` (stereo not drawn) [Example 341] gave an IC50 (human TLR7) of 2 nM, an IC50 (human TLR8) of 5 nM and an IC50 (human TLR9) of 5970 nM.
